Columns and labels:
Assay type in all cases: functional
Set-up in all cases: concentration or dose not given beside the values
Plasmodium berghei = assay: MMV: P. berghei-infected blood was withdrawn from mice by cardiac pucture before being immediately added to ookinete culture medium containing test compounds. 26 hr later, GFP-positive ookinetes were identified and counted by automated microscopy. All compounds were tested in 4 independent experiments and data presented here is the mean.
Plasmodium falciparum [1] = assay: MMV: P. falciparum NF54 functionally mature Stage V gametocytes were incubated for 24 hr in the presence of the test compounds. Gamete formation was then triggered by addition of 2uM xantheurenic acid and temperature decrease to ~20C. Female gamete formation was recorded 24 hr later by automated microscopy detection of surface labelling of female gametes with a Cy3-conjugated antibody reactive to Pfs25. All compounds were tested in 4 independent experiments and data presented here is the mean.; conditions: NF54, 24 h
Plasmodium falciparum [2] = assay: MMV: P. falciparum NF54 functionally mature Stage V gametocytes were incubated for 24 hr in the presence of the test compounds. Gamete formation was then triggered by addition of 2uM xantheurenic acid and temperature decrease to ~20C. Male gamete exflagellation was recorded and analysed by automated microscopy after 20 min. All compounds were tested in 4 independent experiments and data presented here is the mean.

Row | Compound | inhibition (Plasmodium berghei) | inhibition (Plasmodium falciparum [1]) | inhibition (Plasmodium falciparum [2])
1 | CCCCNc1nc(NC(C)(C)C)nc(NC(C)(C)C)n1 | 83.46% | -29.6% | -9.24%
2 | Cc1ccc(Nc2nc(N)c3ccccc3n2)cc1Cl | -5.317% | -26.1% | -51.8%
3 | Oc1ccc(-c2nc(-c3ccc4oc5ccc(-c6[nH]c(-c7ccc(O)cc7)nc6-c6ccccc6)cc5c4c3)c(-c3ccccc3)[nH]2)cc1 | -6.694% | -4.38% | 3.81%
4 | O=C(Cc1ccccc1)NC(c1ccc(Cl)cc1)c1c(O)ccc2ccccc12 (stereo unspecified) | -6.482% | 10.7% | 54.1%
5 | CCCCCCc1cc2cc(-c3nc4ccccc4[nH]3)c(=Nc3ccccc3C)oc2cc1O | 23.15% | 5.88% | 9.8%
6 | CN1c2ccccc2N(C)C1c1ccc2c(c1)OCO2 | 3.083% | -33.5% | 8.56%
7 | CCCCCCn1c(=N)n(CC(O)COc2cccc(C)c2)c2ccccc21.Cl (stereo unspecified) | 1.158% | -17.6% | -52.7%
8 | CCc1ccc(Nc2cc(C)c3ccc(O)cc3n2)cc1.Cl | -20.95% | -14% | 15.2%
9 | CCOc1ccccc1NC(=O)CN1CCN(C(=O)c2ccco2)CC1 | -13.05% | 12.9% | 19.3%
10 | COc1ccc(Nc2nc(N/N=C/c3ccc(O)cc3)nc(Nc3ccc([N+](=O)[O-])cc3)n2)cc1 | 30.88% | -19.8% | -4.02%
11 | Cn1c(C(=O)c2cccc3ccccc23)nc2ccccc21 | -7.647% | -20.6% | -24.7%
12 | Cc1ccc(-c2nc3ccccc3o2)cc1NCc1cc(Cc2ccccc2)ccc1O | -14.9% | -8.19% | 13.9%
13 | COc1ccc(CN2CCCC(C(=O)c3ccc(C(F)(F)F)cc3)C2)c(O)c1 (stereo unspecified) | -17.45% | 6.89% | 36.1%
14 | Oc1c2c(nc3cc(-c4ccccc4)nn13)CCCC2 | 4.402% | -27.5% | 1.37%
15 | COc1ccc(-c2c(C)nn3c(N)c(C#N)cnc23)cc1OC | 6.903% | -16.8% | -13.8%
16 | Cl.OC(CNCc1ccccc1)Cn1c2ccccc2c2ccccc21 (stereo unspecified) | 3.967% | 11.4% | -10.2%

Row | Compound | inhibition (Plasmodium berghei) | inhibition (Plasmodium falciparum [1]) | inhibition (Plasmodium falciparum [2])
17 | CCCCC(O)(c1ccc(Cl)cc1)C(CN1CCOCC1)c1ccc(Cl)cc1.Cl (stereo unspecified) | -12.32% | -22.4% | -10.1%
18 | CCOc1ccc(/C=C/c2nc(=O)c3ccccc3o2)cc1 | -4.823% | -30.2% | 23.7%
19 | CCOC(=O)C1=C(C)N=c2sc(=Cc3ccccc3O)c(=O)n2C1c1ccc(OC)c2ccccc12 (stereo unspecified) | 3.682% | -23.7% | -4.7%
20 | Cc1cccc(-n2ncc3c(O)nc(-n4nc(C)cc4NC(=O)c4cc5ccccc5o4)nc32)c1 | -5.778% | -18.6% | 34.4%
21 | CC(C)(C)c1ccc(O)c(CNC2CCCCC2)c1 | -33.89% | 3.67% | -29.4%
22 | CN1C=C(c2ccc3ccccc3n2)C(c2c[nH]c3ccccc23)c2ccccc21 (stereo unspecified) | -19.58% | -36.4% | -6.39%
23 | COCCN(C(=O)Cc1cccs1)C(C(=O)NCc1ccc(OC)cc1)c1ccc(C(C)C)cc1 (stereo unspecified) | 0.1558% | -5.87% | 9.73%
24 | COc1ccc2nc(C)cc(Nc3ccccc3O)c2c1 | -6.855% | -42% | -8.38%
25 | O=C(Nc1cccc(-c2nc3ccccc3[nH]2)c1)c1cccc(NC(=O)c2ccco2)c1 | -15.24% | -35.1% | 31.6%
26 | CC(C)(C)c1ccc(C2CC3=Nc4ccccc4N(C(=O)c4ccccc4Cl)C(c4ccc(F)cc4)C3=C(O)C2)cc1 (stereo unspecified) | 4.566% | -44.4% | -39.9%
27 | Cc1ccc(Nc2nc(-c3ccccn3)cs2)cc1 | 12.18% | 0.787% | 16.3%
28 | CN(C)c1ccc(C=Cc2nc(=O)c3ccccc3o2)cc1 | 54.94% | -16.7% | 17.6%
29 | CN(N=O)C1=C(NC2CCCCC2)C(=O)c2ccccc2C1=O | -8.019% | -27.6% | 10.5%
30 | O=C(Nc1ccc(N2CCN(Cc3ccccc3)CC2)cc1)c1cccs1.O=C(O)C(F)(F)F | 16.79% | 16.2% | 39.5%
31 | CC1(c2ccccc2)Nc2ccccc2-c2nc3ccccc3n21 (stereo unspecified) | -11.28% | 0.151% | 11.7%
32 | O=C(Nc1ccc(C23CC4CC(CC(c5ccccc5)(C4)C2)C3)cc1)c1cccs1 | -2.527% | -23.5% | 18.1%

From ChEMBL document CHEMBL3301451, “MMV Malaria Box gametocyte functional viability assay screening”
